Source: US9840478B2 (MERCK SHARP & DOHME CORP., priority 2013, dated 2017)

System: HIV-1 (H9IIIB strain)
Test: Cell-based HIV infection assay using a reporter (Cell-Based), MT4-GFP cells
Conditions: Human immunodeficiency virus 1, MT4-GFP cells infected with HIV-1 H9IIIB; 50% normal human serum; mean of at least two independent experiments; read-out: Cell-based IP
How it was run: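 MT4-GFP cells (HIV LTR-driven GFP) infected 24 h with HIV-1 H9IIIB at low MOI, then washed and plated with compounds in RPMI + 50% normal human serum, 0.4% DMSO final. Green cells counted at 24 and 48 h; R0 = 48 h/24 h ratio, inhibition normalized to DMSO and triple-drug control; IC50 from 4-parameter fit.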

| Compound | IC50 [nM] |
| --- | --- |
| COC(=O)N[C@H](C(=O)Nc1cccc(F)c1CC[C@H]1CNC[C@H](C)N1S(=O)(=O)c1ccccc1Cl)C(c1cccc(F)c1)c1cccc(F)c1 [Example 138, N-[2-(2-{(2S,6S)-1-[(2-chlorophenyl)sulfonyl]-6-methylpiperazin-2-yl}ethyl)-3-fluorophenyl]-3-fluoro-β-(3-fluorophenyl)-Nα-(methoxycarbonyl)-L-phenylalaninamide] | 150 |
| COC(=O)N[C@H](C(=O)Nc1cccc(F)c1CC[C@H]1CNC[C@H](C)N1S(C)(=O)=O)[C@@H](c1ccc(Cl)cc1)C1CCOCC1 [Example 139, (βR)-4-chloro-N-(3-fluoro-2-{2-[(2S,6S)-6-methyl-1-(methylsulfonyl)piperazin-2-yl]ethyl}phenyl)-Nα-(methoxycarbonyl)-β-(tetrahydro-2H-pyran-4-yl)-L-phenylalaninamide] | 36 |
| CC(C)[C@H](c1ccc(Cl)cc1)[C@H](N)C(=O)Nc1cccc(F)c1CC[C@H]1CNC[C@H](C)N1S(=O)(=O)c1ccc(OC(F)(F)F)cc1 [Example 140, (βR)-4-chloro-N-(3-fluoro-2-{2-[(2S,6S)-6-methyl-1-{[4-(trifluoromethoxy)phenyl]sulfonyl}piperazin-2-yl]ethyl}phenyl)-β-(1-methylethyl)-L-phenylalaninamide] | 250 |
| C[C@H]1CNC[C@H](CCc2c(F)cccc2NC(=O)[C@@H](N)[C@@H](c2ccc(Cl)cc2)C2CCOCC2)N1S(=O)(=O)C1CC1 [Example 141, (βR)-4-chloro-N-(2-{2-[(2S,6S)-1-(cyclopropylsulfonyl)-6-methylpiperazin-2-yl]ethyl}-3-fluorophenyl)-β-(tetrahydro-2H-pyran-4-yl)-L-phenylalaninamide] | 77 |
| COC(=O)N[C@H](C(=O)Nc1cccc(F)c1CC[C@H]1CNC[C@H](C)N1S(=O)(=O)c1ccc(OC(F)(F)F)cc1)[C@@H](c1ccc(Cl)cc1)C(C)C [Example 142, (βR)-4-chloro-N-(3-fluoro-2-{2-[(2S,6S)-6-methyl-1-{[4-(trifluoromethoxy)phenyl]sulfonyl}piperazin-2-yl]ethyl}phenyl)-Nα-(methoxycarbonyl)-β-(1-methylethyl)-L-phenylalaninamide] | 84 |
| COC(=O)N[C@H](C(=O)Nc1cccc(F)c1CC[C@H]1CNC[C@H](C)N1S(=O)(=O)c1ccccc1Cl)[C@@H](c1ccc(Cl)cc1)C(C)C [Example 143, (βR)-4-chloro-N-[2-(2-{(2S,6S)-1-[(2-chlorophenyl)sulfonyl]-6-methylpiperazin-2-yl}ethyl)-3-fluorophenyl]-Nα-(methoxycarbonyl)-β-(1-methylethyl)-L-phenylalaninamide] | 570 |
| COC(=O)N[C@H](C(=O)Nc1cccc(F)c1CC[C@H]1CNC[C@H](C)N1S(=O)(=O)C1CC1)[C@@H](c1ccc(Cl)cc1)C(C)C [Example 144, (βR)-4-chloro-N-(2-{2-[(2S,6S)-1-(cyclopropylsulfonyl)-6-methylpiperazin-2-yl]ethyl}-3-fluorophenyl)-Nα-(methoxycarbonyl)-β-(1-methylethyl)-L-phenylalaninamide] | 93 |
| COC(=O)N[C@H](C(=O)Nc1cccc(F)c1CC[C@H]1CNC[C@@H](C)N1S(=O)(=O)C1CC1)[C@@H](c1ccc(Cl)cc1)C(C)C [Example 145, (βR)-4-chloro-N-(2-{2-[(2S,6R)-1-(cyclopropylsulfonyl)-6-methylpiperazin-2-yl]ethyl}-3-fluorophenyl)-Nα-(methoxycarbonyl)-β-(1-methylethyl)-L-phenylalaninamide] | 170 |
| COC(=O)N[C@H](C(=O)Nc1cccc(F)c1CC[C@H]1CNC[C@@H](C)N1S(C)(=O)=O)[C@@H](c1ccc(F)cc1)C1CCOCC1 [Example 146, (βR)-4-fluoro-N-(3-fluoro-2-{2-[(2S,6R)-6-methyl-1-(methylsulfonyl)piperazin-2-yl]ethyl}phenyl)-Nα-(methoxycarbonyl)-β-(tetrahydro-2H-pyran-4-yl)-L-phenylalaninamide] | 72 |
| CCOC(=O)N[C@H](C(=O)Nc1cccc(F)c1CC[C@H]1CNC[C@@H](C)N1S(=O)(=O)c1ccccc1)[C@@H](c1ccc(Cl)cc1)C1CCOCC1 [Example 148, (βR)-4-chloro-Nα-(ethoxycarbonyl)-N-(3-fluoro-2-{2-[(2S,6R)-6-methyl-1-(phenylsulfonyl)piperazin-2-yl]ethyl}phenyl)-β-(tetrahydro-2H-pyran-4-yl)-L-phenylalaninamide] | 8.8 |
| COc1ccc([C@H](c2ccc(Cl)cc2)[C@H](N)C(=O)Nc2cccc(F)c2CC[C@H]2CNC[C@H](C)N2S(=O)(=O)C2CC2)cn1 [Example 150, (βS)-4-chloro-N-(2-{2-[(2S,6S)-1-(cyclopropylsulfonyl)-6-methylpiperazin-2-yl]ethyl}-3-fluorophenyl)-β-(6-methoxypyridin-3-yl)-L-phenylalaninamide] | 26 |
| COC(=O)N[C@H](C(=O)Nc1cccc(F)c1CC[C@H]1CNC[C@H](C)N1S(=O)(=O)C1CC1)[C@@H](c1ccc(Cl)cc1)c1ccc(OC)nc1 [Example 151, (βS)-4-chloro-N-(2-{2-[(2S,6S)-1-(cyclopropylsulfonyl)-6-methylpiperazin-2-yl]ethyl}-3-fluorophenyl)-Nα-(methoxycarbonyl)-β-(6-methoxypyridin-3-yl)-L-phenylalaninamide] | 17 |
| COC(=O)N[C@H](C(=O)Nc1cccc(F)c1CC[C@H]1CNC[C@@H](C)N1S(=O)(=O)C1CC1)[C@@H](c1ccc(Cl)cc1)c1ccc(OC)nc1 [Example 153, (βS)-4-chloro-N-(2-{2-[(2S,6R)-1-(cyclopropylsulfonyl)-6-methylpiperazin-2-yl]ethyl}-3-fluorophenyl)-Nα-(methoxycarbonyl)-β-(6-methoxypyridin-3-yl)-L-phenylalaninamide] | 28 |
| C[C@H]1CNC[C@H](CCc2c(F)cccc2NC(=O)[C@@H](N)[C@H](c2cccc(F)c2)c2cccc(Cl)c2)N1S(=O)(=O)c1ccccc1 [Example 154, (βR)-3-chloro-N-(3-fluoro-2-{2-[(2S,6S)-6-methyl-1-(phenylsulfonyl)piperazin-2-yl]ethyl}phenyl)-β-(3-fluorophenyl)-L-phenylalaninamide] | 65 |
| COC(=O)N[C@H](C(=O)Nc1cccc(F)c1CC[C@H]1CNC[C@H](C)N1S(=O)(=O)c1ccccc1)[C@H](c1cccc(F)c1)c1cccc(Cl)c1 [Example 155, (βR)-3-chloro-N-(3-fluoro-2-{2-[(2S,6S)-6-methyl-1-(phenylsulfonyl)piperazin-2-yl]ethyl}phenyl)-β-(3-fluorophenyl)-Nα-(methoxycarbonyl)-L-phenylalaninamide] | 67 |
| COc1ccc(S(=O)(=O)N2[C@@H](CCc3c(F)cccc3NC(=O)[C@@H](N)C(c3cccc(F)c3)c3cccc(F)c3)CNC[C@@H]2C)cc1 [Example 156, 3-fluoro-N-[3-fluoro-2-(2-{(2S,6S)-1-[(4-methoxyphenyl)sulfonyl]-6-methylpiperazin-2-yl}ethyl)phenyl]-β-(3-fluorophenyl)-L-phenylalaninamide] | 14 |
| COC(=O)N[C@H](C(=O)Nc1cccc(F)c1CC[C@H]1CNC[C@H](C)N1S(=O)(=O)c1ccc(OC)cc1)C(c1cccc(F)c1)c1cccc(F)c1 [Example 157, 3-fluoro-N-[3-fluoro-2-(2-{(2S,6S)-1-[(4-methoxyphenyl)sulfonyl]-6-methylpiperazin-2-yl}ethyl)phenyl]-β-(3-fluorophenyl)-Nα-(methoxycarbonyl)-L-phenylalaninamide] | 7.3 |
| C[C@H]1CNC[C@H](CCc2c(F)cccc2NC(=O)[C@@H](N)C(c2cccc(F)c2)c2cccc(F)c2)N1S(=O)(=O)C1CC1 [Example 158, N-(2-{2-[(2S,6S)-1-(cyclopropylsulfonyl)-6-methylpiperazin-2-yl]ethyl}-3-fluorophenyl)-3-fluoro-β-(3-fluorophenyl)-L-phenylalaninamide] | 75 |
| COC(=O)N[C@H](C(=O)Nc1cccc(F)c1CC[C@H]1CNC[C@H](C)N1S(=O)(=O)C1CC1)C(c1cccc(F)c1)c1cccc(F)c1 [Example 159, N-(2-{2-[(2S,6S)-1-(cyclopropylsulfonyl)-6-methylpiperazin-2-yl]ethyl}-3-fluorophenyl)-3-fluoro-β-(3-fluorophenyl)-Nα-(methoxycarbonyl)-L-phenylalaninamide] | 42 |
| C[C@@H]1CNC[C@H](CCc2c(F)cccc2NC(=O)[C@@H](N)[C@@H](c2ccc(Cl)cc2)C2CCOCC2)N1S(C)(=O)=O [Example 160, (βR)-4-chloro-N-(3-fluoro-2-{2-[(2S,6R)-6-methyl-1-(methylsulfonyl)piperazin-2-yl]ethyl}phenyl)-β-(tetrahydro-2H-pyran-4-yl)-L-phenylalaninamide] | 190 |
| COc1ccc(S(=O)(=O)N2[C@@H](CCc3c(F)cccc3NC(=O)[C@@H](N)[C@H](c3cccc(F)c3)c3cccc(Cl)c3)CNC[C@@H]2C)cc1 [Example 162, (βR)-3-chloro-N-[3-fluoro-2-(2-{(2S,6S)-1-[(4-methoxyphenyl)sulfonyl]-6-methylpiperazin-2-yl}ethyl)phenyl]-β-(3-fluorophenyl)-L-phenylalaninamide] | 22 |
| COC(=O)N[C@H](C(=O)Nc1cccc(F)c1CC[C@H]1CNC[C@H](C)N1S(=O)(=O)c1ccc(OC)cc1)[C@H](c1cccc(F)c1)c1cccc(Cl)c1 [Example 163, (βR)-3-chloro-N-[3-fluoro-2-(2-{(2S,6S)-1-[(4-methoxyphenyl)sulfonyl]-6-methylpiperazin-2-yl}ethyl)phenyl]-β-(3-fluorophenyl)-Nα-(methoxycarbonyl)-L-phenylalaninamide] | 20 |
| COc1ccc([C@H](c2ccc(Cl)cc2)[C@H](N)C(=O)Nc2cccc(F)c2CC[C@H]2CNC[C@H](C)N2S(C)(=O)=O)cn1 [Example 164, (βS)-4-chloro-N-(3-fluoro-2-{2-[(2S,6S)-6-methyl-1-(methylsulfonyl)piperazin-2-yl]ethyl}phenyl)-β-(6-methoxypyridin-3-yl)-L-phenylalaninamide] | 37 |
